Source: PMC8230474, “Synthesis of Novel Acyl Derivatives of 3-(4,5,6,7-Tetrabromo-1H-benzimidazol-1-yl)propan-1-ols—Intracellular TBBi-Based CK2 Inhibitors with Proapoptotic Properties” (International Journal of Molecular Sciences, 2021)

Experiments:
[1] = test system: protein kinase CK2 in MDA-MB-231 cells; experiment: Intracellular inhibition of CK2, Western blot of p-Ser529 p65 and p-Ser129 Akt1, MDA-MB-231; format: cell-based, human; conditions: MDA-MB-231, 24 h treatment, compound at its 72-h EC50, relative to untreated control
From the text: We observed an inhibition of CK2 in both cell lines; however, the lower efficiency of CK2 inhibition was detected in MCF-7 considering the extent of Akt1 phosphorylation. The relative level of the phosphorylation of the tested proteins in MDA-MB-231 cells was in the range of 0.32 to 0.80 for p-Ser529 p65 and 0.41 to 0.73 for p-Ser129 Akt1, whereas in MCF-7 cells it was in the range of 0.33 to 0.78 for p-Ser529 p65 and 0.82 to 1.23 for p-Ser129 Akt1, respectively. The lowest phosphorylation levels of the tested proteins were detected in MDA-MB-231 cells for compound 6b with the relative level of 0.41 for Ser129 Akt1 as well as for compound 6c with the relative level of 0.32 for p-Ser529 p65. Among the tested proteins, the lowest extent of phosphorylation in MCF-7 cells was detected for 6b with the relative level of 0.33 for p-Ser529 p65, and for 6a with the relative level of 0.82 for Ser129 Akt1.
The MCF-7 cells growing exponentially were seeded at 4.8 × 10^5 cells in 6-cm-diameter plates. Subsequently, compounds were added in a final concentration of 0.5% DMSO. […] The protein concentration was determined using Bradford assay. […]
For densitometry, immunoblots were quantified using the Fiji distribution of the ImageJ 1.52a software (National Institutes of Health, Bethesda, MD, USA, and the University of Wisconsin, Madison, WI, USA). […]

MCF-7 cells = experiment: Annexin V-FITC/PI flow cytometry, MCF-7; format: cell-based, human; conditions: MCF-7, 72-h treatment, compound at its EC50
Description: Additionally, assaying annexin V-binding to phosphatidylserine by means of flow cytometry confirmed that derivatives 3c and 6a–c induced apoptosis in both cell lines (Figure 9, Figure S3).
MCF-7 cells were seeded in six-well plates at 1.5 × 10^5 cells/well. […] Then, the plates were incubated for 24 h or 72 h. After exposure to the examined compounds, the floating cells were collected, and monolayer cell culture was trypsinized. The cells were centrifugated at 200× g at 4 °C for 5 min, washed twice in cold phosphate-buffered saline (PBS), and subsequently suspended in binding buffer at 1 × 10^6 cells/mL. Subsequently, 100-μL aliquots of the cell suspension were labeled according to the kit manufacturer’s instructions. Briefly, annexin V-fluorescein isothiocyanate and propidium iodide (BD Biosciences, Pharmingen, San Diego, CA, USA) were added to the cell suspension, and the mixture was vortexed and then incubated for 15 min at RT in the dark. A cold binding buffer (900 μL) was then added and the cells were vortexed again and kept on ice. Flow cytometric measurements were performed within 1 h after labeling. Viable, necrotic, early, and late apoptotic cells were detected by flow cytometry using CyFlow Cube 8 (Sysmex, Norderstedt, Germany) flow cytometer.

Question: For CCCCCC(=O)OCCCn1c(C)nc2c(Br)c(Br)c(Br)c(Br)c21 [Compound 6b, (4,5,6,7-Tetrabromo-2-methyl-1H-benzimidazol-1-yl)propyl hexanoate], which “relative level of p-Ser129 Akt1” value [1] is on record?
Answer: The value was 0.41.

Question: What about the “apoptotic cells (early and late apoptosis)” value (MCF-7 cells) of the same molecule?
Answer: The value was 57.5%.
